The source made the active and inactive calls. The calls are words filed in the database; no cut-off is given here.
Legend:
MDA-MB-231 [1] = assay: Cell cycle arrest in human MDA-MB-231 cells assessed as increase in accumulation at G2/M phase at 0.8 uM after 48 hrs by propidium iodide staining based flow cytometric method relative to control; format: functional
MDA-MB-231 [2] = assay: Induction of apoptosis in human MDA-MB-231 cells assessed as increase in cleaved PARP expression at 0.2 to 0.8 uM after 48 hrs by Western blot analysis; format: functional, cell-based
MDA-MB-231 [3] = assay: Synergistic induction of apoptosis in human MDA-MB-231 cells assessed as necrotic cells at 0.4 uM after 48 hrs in presence of DMXAA by Annexin-V/FITC/PI staining based flow cytometry (reference value: 0.00 %); format: functional
MDA-MB-231 [4] = assay: Synergistic antiproliferative activity against human MDA-MB-231 cells at compound to DMXAA mol ratio of 1:1 after 48 hrs by CCK8 assay relative to compound alone; format: functional
MDA-MB-231 [5] = assay: Induction of apoptosis in human MDA-MB-231 cells assessed as necrotic cells at 0.8 uM after 48 hrs by Annexin-V/FITC/PI staining based flow cytometry (reference value: 1.55 %); format: functional
MDA-MB-231 [6] = assay: Induction of apoptosis in human MDA-MB-231 cells after 48 hrs by Annexin-V/FITC/PI staining based flow cytometry; format: functional, cell-based
MDA-MB-231 [7] = assay: Synergistic induction of apoptosis in human MDA-MB-231 cells assessed as early apoptotic cells at 0.4 uM after 48 hrs in presence of DMXAA by Annexin-V/FITC/PI staining based flow cytometry (reference value: 0.05 %); format: functional
MDA-MB-231 [8] = assay: Synergistic induction of apoptosis in human MDA-MB-231 cells assessed as decrease in caspase-9 level at 0.1 to 0.5 uM after 48 hrs in presence of DMXAA by Western blot analysis; format: functional, cell-based
MDA-MB-231 [9] = assay: Induction of apoptosis in human MDA-MB-231 cells after 48 hrs in presence of DMXAA by Annexin-V/FITC/PI staining based flow cytometry; format: functional, cell-based
MDA-MB-231 [10] = assay: Synergistic increase in p53 level in human MDA-MB-231 cells at 0.1 to 0.5 uM after 48 hrs in presence of DMXAA by Western blot analysis; format: functional, cell-based
MDA-MB-231 [11] = assay: Induction of apoptosis in human MDA-MB-231 cells assessed as necrotic cells at 0.2 uM after 48 hrs by Annexin-V/FITC/PI staining based flow cytometry (reference value: 1.55 %); format: functional
K562 [12] = assay: Synergistic antiproliferative activity against human K562 cells at compound to DMXAA mol ratio of 1:1 after 48 hrs by CCK8 assay; format: functional, cell-based; conditions: K562, 48 h
MDA-MB-231 [13] = assay: Induction of apoptosis in human MDA-MB-231 cells assessed as early apoptotic cells at 0.8 uM after 48 hrs by Annexin-V/FITC/PI staining based flow cytometry (reference value: […] %); format: functional
MDA-MB-231 [14] = assay: Synergistic induction of apoptosis in human MDA-MB-231 cells assessed as increase in cleaved caspase-3 level at 0.1 to 0.5 uM after 48 hrs in presence of DMXAA by Western blot analysis; format: functional, cell-based
MDA-MB-231 [15] = assay: Synergistic induction of apoptosis in human MDA-MB-231 cells assessed as early apoptotic cells at 0.8 uM after 48 hrs in presence of DMXAA by Annexin-V/FITC/PI staining based flow cytometry (reference value: 0.05 %); format: functional
COLO 320 = assay: Antiproliferative activity against human COLO320 cells after 48 hrs by CCK8 assay; format: functional, cell-based; conditions: COLO 320, 48 h
K562 [16] = assay: Antiproliferative activity against human K562 cells after 48 hrs by CCK8 assay; format: functional, cell-based; conditions: K562, 48 h
HepG2 = assay: Synergistic antiproliferative activity against human HepG2 cells at compound to DMXAA mol ratio of 1:1 after 48 hrs by CCK8 assay; format: functional, cell-based; conditions: HepG2, 48 h
MCF7 [17] = assay: Synergistic antiproliferative activity against human MCF7 cells at compound to DMXAA mol ratio of 1:1 after 48 hrs by CCK8 assay; format: functional, cell-based; conditions: MCF7, 48 h
MDA-MB-231 [18] = assay: Decrease in MDM2 level in human MDA-MB-231 cells at 0.2 to 0.8 uM after 48 hrs by Western blot analysis; format: functional, cell-based
MDA-MB-231 [19] = assay: Synergistic induction of apoptosis in human MDA-MB-231 cells assessed as necrotic cells at 0.8 uM after 48 hrs in presence of DMXAA by Annexin-V/FITC/PI staining based flow cytometry (reference value: 0.00 %); format: functional
MCF7 [20] = assay: Antiproliferative activity against human MCF7 cells after 48 hrs by CCK8 assay; format: functional, cell-based; conditions: MCF7, 48 h
MDA-MB-231 [21] = assay: Increase in p53 level in human MDA-MB-231 cells at 0.2 to 0.8 uM after 48 hrs by Western blot analysis; format: functional, cell-based
MDA-MB-231 [22] = assay: Induction of apoptosis in human MDA-MB-231 cells assessed as necrotic cells at 0.4 uM after 48 hrs by Annexin-V/FITC/PI staining based flow cytometry (reference value: 1.55 %); format: functional
MDA-MB-231 [23] = assay: Synergistic cell cycle arrest in human MDA-MB-231 cells assessed as accumulation at G2/M phase at 0.2 to 0.8 uM after 48 hrs in presence of DMXAA by propidium iodide staining based flow cytometric method; format: functional
MDA-MB-231 [24] = assay: Induction of apoptosis in human MDA-MB-231 cells assessed as early apoptotic cells at 0.2 uM after 48 hrs by Annexin-V/FITC/PI staining based flow cytometry (reference value: 0.44 %); format: functional
MDA-MB-231 [25] = assay: Synergistic decrease in MDM2 level in human MDA-MB-231 cells at 0.1 to 0.5 uM after 48 hrs in presence of DMXAA by Western blot analysis; format: functional, cell-based
MDA-MB-231 [26] = assay: Induction of apoptosis in human MDA-MB-231 cells assessed as late apoptotic cells at 0.8 uM after 48 hrs by Annexin-V/FITC/PI staining based flow cytometry (reference value: 1.50 %); format: functional
MDA-MB-231 [27] = assay: Synergistic induction of apoptosis in human MDA-MB-231 cells assessed as early apoptotic cells at 0.2 uM after 48 hrs in presence of DMXAA by Annexin-V/FITC/PI staining based flow cytometry (reference value: 0.05 %); format: functional
MDA-MB-231 [28] = assay: Induction of apoptosis in human MDA-MB-231 cells assessed as viable cells at 0.4 uM after 48 hrs by Annexin-V/FITC/PI staining based flow cytometry (reference value: 96.51 %); format: functional; conditions: MDA-MB-231, 48 h, read-out: Activity
MDA-MB-231 [29] = assay: Synergistic induction of apoptosis in human MDA-MB-231 cells assessed as increase in cleaved PARP level at 0.1 to 0.5 uM after 48 hrs in presence of DMXAA by Western blot analysis; format: functional, cell-based
MDA-MB-231 [30] = assay: Induction of apoptosis in human MDA-MB-231 cells assessed as late apoptotic cells at 0.2 uM after 48 hrs by Annexin-V/FITC/PI staining based flow cytometry (reference value: 1.50 %); format: functional
MDA-MB-231 [31] = assay: Induction of apoptosis in human MDA-MB-231 cells assessed as early apoptotic cells at 0.4 uM after 48 hrs by Annexin-V/FITC/PI staining based flow cytometry (reference value: 0.44 %); format: functional
L02 = assay: Cytotoxicity against human HL-7702 cells after 48 hrs by CCK8 assay; format: cell-based; conditions: L02, 48 h

O=c1c2cc(Br)ccc2oc2cc(O)cc(O)c12
Activity (MDA-MB-231 [1]): 21.8%
Activity (MDA-MB-231 [2]): Active
Activity (MDA-MB-231 [3]): 22.27%
fold change (FC) (MDA-MB-231 [4]): 10
Activity (MDA-MB-231 [5]): 45.02%
Activity (MDA-MB-231 [6]): Dose-dependent effect
Activity (MDA-MB-231 [7]): 4.7%
Activity (MDA-MB-231 [8]): Active
Activity (MDA-MB-231 [9]): Dose-dependent effect
Activity (MDA-MB-231 [10]): Active
Activity (MDA-MB-231 [11]): 14.44%
IC50 (K562 [12]): 10.2 µM
Activity (MDA-MB-231 [13]): 2.21%
Activity (MDA-MB-231 [14]): Active
Activity (MDA-MB-231 [15]): 6.81%
IC50 (COLO 320): 10.5 µM
IC50 (K562 [16]): 13.4 µM
IC50 (HepG2): 7.21 µM
IC50 (MCF7 [17]): 2.41 µM
Activity (MDA-MB-231 [18]): Active
Activity (MDA-MB-231 [19]): 17.47%
IC50 (MCF7 [20]): 3.4 µM
Activity (MDA-MB-231 [21]): Active
Activity (MDA-MB-231 [22]): 38.81%
Activity (MDA-MB-231 [23]): inactive
Activity (MDA-MB-231 [24]): 0.98%
Activity (MDA-MB-231 [25]): Active
Activity (MDA-MB-231 [26]): 13.71%
Activity (MDA-MB-231 [27]): 2.79%
viability at 0.4 µM (MDA-MB-231 [28]): 47.9%
Activity (MDA-MB-231 [29]): Active
Activity (MDA-MB-231 [30]): 5.35%
Activity (MDA-MB-231 [31]): 1.74%
IC50 (L02): 565 µM
